Structures are written as SMILES.

The target of one assay is T1, CCKB receptor (Mus musculus, UniProt P56481).
T1 construct: The whole brains from male mice (CD1 22-25 g; Charles River) were removed; from tissue; host or cells: cerebral cortex membranes of male CD1 mice
T1 sequence (P56481 1-453): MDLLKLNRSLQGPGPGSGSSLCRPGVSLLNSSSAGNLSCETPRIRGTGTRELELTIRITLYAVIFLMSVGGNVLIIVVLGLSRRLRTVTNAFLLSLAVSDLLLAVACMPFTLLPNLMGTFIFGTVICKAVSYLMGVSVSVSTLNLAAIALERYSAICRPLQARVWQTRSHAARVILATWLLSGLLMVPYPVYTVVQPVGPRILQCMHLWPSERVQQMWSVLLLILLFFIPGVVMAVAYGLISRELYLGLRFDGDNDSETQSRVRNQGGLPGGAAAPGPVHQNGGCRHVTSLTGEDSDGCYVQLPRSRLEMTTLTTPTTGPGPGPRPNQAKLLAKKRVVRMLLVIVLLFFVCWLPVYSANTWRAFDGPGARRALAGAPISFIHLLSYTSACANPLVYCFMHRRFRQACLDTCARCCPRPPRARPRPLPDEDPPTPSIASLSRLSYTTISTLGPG
The assay can be described thus: CCKB receptor radioligand binding assay in mouse cortical membranes. Particulars: [125I]-CCK8(S) 200 pM, 150 min at 21±3°, read-out: CCKB pKi (converted). The method in brief: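 Bound radioactivity was gamma-counted after rapid GF/B filtration and cold 50 mM Tris-HCl (pH 7.4) washes. The tissue was cerebral cortex from male CD1 mice, prepared as twice-centrifuged membranes in pH 7.2 HEPES/NaCl/KCl/MgCl2/EDTA buffer with bacitracin at 20 mg/ml original wet weight.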

The next assay has as its target T2, gastrin receptor (Rattus norvegicus, UniProt P30553).
T2 construct: The stomach was excised and flushed with ca. 1 ml of unbuffered physiological saline solution; from tissue; host or cells: isolated whole stomach of immature rats (ca. 21 days old)
T2 sequence (P30553 1-452): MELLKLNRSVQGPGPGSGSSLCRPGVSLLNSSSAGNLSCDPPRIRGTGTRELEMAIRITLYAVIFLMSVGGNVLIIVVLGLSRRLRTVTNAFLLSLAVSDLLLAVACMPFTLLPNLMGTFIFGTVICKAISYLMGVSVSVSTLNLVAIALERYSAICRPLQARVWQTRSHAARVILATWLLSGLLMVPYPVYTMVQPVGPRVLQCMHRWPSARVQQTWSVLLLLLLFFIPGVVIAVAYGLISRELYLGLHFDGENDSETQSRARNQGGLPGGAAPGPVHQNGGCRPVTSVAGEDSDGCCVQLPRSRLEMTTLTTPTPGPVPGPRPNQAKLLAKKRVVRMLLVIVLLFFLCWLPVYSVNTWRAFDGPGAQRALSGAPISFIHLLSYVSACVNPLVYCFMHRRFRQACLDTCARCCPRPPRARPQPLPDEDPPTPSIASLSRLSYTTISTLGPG
The assay can be described thus: gastrin antagonist activity in immature rat stomach assay (pentagastrin dose-response, acid secretion). Particulars: isolated immature rat stomach, cumulative pentagastrin dose-response curves, read-out: Gastrin pKb (converted). The method in brief: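 Gastrin antagonism was measured as the effect on cumulative pentagastrin dose-response curves of acid output, recorded by pH electrode in the perfusate of an excised immature rat stomach (ca. 21 days old). Test compound was placed in the serosal bath (37°, 3×10^−8 M 5-methylfurmethide) 60 min before pentagastrin.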

In the case of `CCCCC(CC)c1nc(C(=O)Nc2cccc(C(=O)O)c2)c(CCC23CC4CC(CC(C4)C2)C3)[nH]1` (stereo not drawn) [Example 124, 3-{[5-(2-Adamantan-1-yl-ethyl)-2-(1-ethyl-pentyl)-1H-imidazole-4-carbonyl]-amino}-benzoic Acid], the Ki on CCKB receptor is 63.1 nM. Moreover, at gastrin receptor, the Kb was 15.5 nM.

In the case of `CCCC(CCC)c1nc(C(=O)Nc2cccc(C(=O)O)c2)c(CCC23CC4CC(CC(C4)C2)C3)[nH]1` [Example 125, 3-{[5-(2-Adamantan-1-yl-ethyl)-2-(1-propyl-butyl)-1H-imidazole-4-carbonyl]-amino}-benzoic Acid], the Ki on CCKB receptor was 105 nM. In addition, the Kb on gastrin receptor is 2.29 nM.

As to `CCCC(CCC)c1nc(C(=O)Nc2ccc(C)c(C(=O)O)c2)c(CCC23CC4CC(CC(C4)C2)C3)[nH]1` [Example 126, 5-{[5-(2-Adamantan-1-yl-ethyl)-2-(1-propyl-butyl)-1H-imidazole-4-carbonyl]-amino}-2-methyl-benzoic Acid], the Ki on CCKB receptor was 21.9 nM. Moreover, the Kb on gastrin receptor is 15.8 nM.

As to `O=C(O)c1cc(NC(=O)c2nc(C3CCCCC3)[nH]c2CCC23CC4CC(CC(C4)C2)C3)cc(C(=O)O)c1` [Example 129, 5-{[5-(2-Adamantan-1-yl-ethyl)-2-cyclohexyl-1H-imidazole-4-carbonyl]-amino}-isophthalic Acid], the Ki at CCKB receptor is 219 nM. Further, at gastrin receptor, the Kb was 380 nM.

Consider `Nc1ccc(C(=O)O)cc1NC(=O)c1nc(C2CCCCC2)[nH]c1CCC12CC3CC(CC(C3)C1)C2` [Example 131, 3-{[5-(2-Adamantan-1-yl-ethyl)-2-cyclohexyl-1H-imidazole-4-carbonyl]-amino}-4-amino-benzoic Acid], for which the Ki at CCKB receptor was 407 nM. For the same compound, the Kb on gastrin receptor is 339 nM.

For the compound `CC1(CCc2[nH]c(C3CCCCC3)nc2C(=O)Nc2cccc(C(=O)O)c2)CCCCC1` [Example 133, 3-({2-Cyclohexyl-5-[2-(1-methyl-cyclohexyl)-ethyl]-1H-imidazole-4-carbonyl}-amino)-benzoic Acid], the Ki on CCKB receptor is 141 nM. For the same compound, the Kb at gastrin receptor is 12 nM.

Consider `Cc1ccc(NC(=O)c2nc(C3CCCCC3)[nH]c2CCC23CC4CC(CC(C4)C2)C3)cc1C(=O)O` [Example 135, 5-{[5-(2-Adamantan-1-yl-ethyl)-2-cyclohexyl-1H-imidazole-4-carbonyl]-amino}-2-methyl-benzoic Acid], for which the Ki on CCKB receptor is 6.17 nM. Also, the Kb on gastrin receptor was 22.4 nM.

On to `O=C(O)c1cccc(NC(=O)c2nc([C@@H]3CCCN3)[nH]c2CCC23CC4CC(CC(C4)C2)C3)c1` [Example 136, (S)-3-{[5-(2-Adamantan-1-yl-ethyl)-2-pyrrolidin-2-yl-1H-imidazole-4-carbonyl]-amino}-benzoic Acid], for which the Ki on CCKB receptor is 4170 nM. Moreover, the Kb at gastrin receptor was 148 nM.

For the compound `CN1CCC[C@H]1c1nc(C(=O)Nc2cccc(C(=O)O)c2)c(CCC23CC4CC(CC(C4)C2)C3)[nH]1` [Example 137, (S)-3-{[5-(2-Adamantan-1-yl-ethyl)-2-(1-methyl-pyrrolidin-2-yl)-1H-imidazole-4-carbonyl]-amino}-benzoic Acid], on CCKB receptor, the Ki was 324 nM. Moreover, the Kb at gastrin receptor was 5.13 nM.

As to `Cc1ccc(NC(=O)c2nc([C@@H]3CCCN3C)[nH]c2CCC23CC4CC(CC(C4)C2)C3)cc1C(=O)O` [Example 138, (S)-5-{[5-(2-Adamantan-1-yl-ethyl)-2-(1-methyl-pyrrolidin-2-yl)-1H-imidazole-4-carbonyl]-amino}-2-methyl-benzoic Acid], on CCKB receptor, the Ki is 50.1 nM. Besides, at gastrin receptor, the Kb was 25.7 nM.

`CN1CCC[C@@H]1c1nc(C(=O)Nc2cccc(C(=O)O)c2)c(CCC23CC4CC(CC(C4)C2)C3)[nH]1` [Example 143]: the Ki at CCKB receptor is 191 nM. The Kb on gastrin receptor was 60.3 nM.

As for `CC(C)CN1CCC[C@@H]1c1nc(C(=O)Nc2cccc(C(=O)O)c2)c(CCC23CC4CC(CC(C4)C2)C3)[nH]1` [Example 144, (R)-3-{[5-(2-Adamantan-1-yl-ethyl)-2-[1-(2-methyl-propyl)-pyrrolidin-2-yl]-1H-imidazole-4-carbonyl]-amino}-benzoic Acid], the Ki on CCKB receptor is 437 nM. Also, the Kb at gastrin receptor was 14.1 nM.

Turning to `O=C(O)c1cccc(NC(=O)c2nc(-c3ccc(Cl)cc3Cl)[nH]c2CCC23CC4CC(CC(C4)C2)C3)c1` [Example 146, 3-{[5-(2-Adamantan-1-yl-ethyl)-2-(2,4-dichlorophenyl)-1H-imidazole-4-carbonyl]-amino}-benzoic Acid], the Ki at CCKB receptor was 151 nM. In addition, the Kb at gastrin receptor is 51.3 nM.

For the compound `O=C(O)c1cccc(NC(=O)c2nc(-c3c(Cl)cccc3Cl)[nH]c2CCC23CC4CC(CC(C4)C2)C3)c1` [Example 148, 3-{[5-(2-Adamantan-1-yl-ethyl)-2-(2,6-dichlorophenyl)-1H-imidazole-4-carbonyl]-amino}-benzoic Acid], the Ki at CCKB receptor is 102 nM. Further, at gastrin receptor, the Kb is 53.7 nM.

For `Cc1ccc(NC(=O)c2nc(-c3cccc(Cl)c3Cl)[nH]c2CCC23CC4CC(CC(C4)C2)C3)cc1C(=O)O` [Example 150, 5-{[5-(2-Adamantan-1-yl-ethyl)-2-(2,3-dichlorophenyl)-1H-imidazole-4-carbonyl]-amino}-2-methyl-benzoic Acid], at CCKB receptor, the Ki was 145 nM. Also, the Kb at gastrin receptor is 646 nM.

Regarding `Cc1ccc(-c2nc(C(=O)Nc3ccc(C)c(C(=O)O)c3)c(CCC34CC5CC(CC(C5)C3)C4)[nH]2)c(C)c1` [Example 151, 5-{[5-(2-Adamantan-1-yl-ethyl)-2-(2,4-dimethyl-phenyl)-1H-imidazole-4-carbonyl]-amino}-2-methyl-benzoic Acid], at CCKB receptor, the Ki was 6.31 nM. Besides, the Kb on gastrin receptor is 21.9 nM.

As for `Cc1ccc(NC(=O)c2nc(-c3ccc(F)cc3F)[nH]c2CCC23CC4CC(CC(C4)C2)C3)cc1C(=O)O` [Example 152, 5-{[5-(2-Adamantan-1-yl-ethyl)-2-(2,4-difluoro-phenyl)-1H-imidazole-4-carbonyl]-amino}-2-methyl-benzoic Acid], the Ki on CCKB receptor was 10.5 nM. Moreover, the Kb on gastrin receptor was 11.5 nM.

As for `Cc1ccc(NC(=O)c2nc(-c3c(C)cccc3C)[nH]c2CCC23CC4CC(CC(C4)C2)C3)cc1C(=O)O` [Example 153, 5-{[5-(2-Adamantan-1-yl-ethyl)-2-(2,6-dimethyl-phenyl)-1H-imidazole-4-carbonyl]-amino}-2-methyl-benzoic Acid], on CCKB receptor, the Ki was 4.9 nM. Besides, at gastrin receptor, the Kb is 57.5 nM.

For `Cc1cc(C)c(-c2nc(C(=O)Nc3cccc(C(=O)O)c3)c(CCC34CC5CC(CC(C5)C3)C4)[nH]2)c(C)c1` [Example 154, 3-{[5-(2-Adamantan-1-yl-ethyl)-2-(2,4,6-trimethyl-phenyl)-1H-imidazole-4-carbonyl]-amino}-benzoic Acid], the Ki at CCKB receptor was 24.5 nM. In addition, the Kb at gastrin receptor was 8.71 nM.

With `CCc1ccccc1-c1nc(C(=O)Nc2cccc(C(=O)O)c2)c(CCC23CC4CC(CC(C4)C2)C3)[nH]1` [Example 158, 3-{[5-(2-Adamantan-1-yl-ethyl)-2-(2-ethyl-phenyl)-1H-imidazole-4-carbonyl]-amino}-benzoic Acid], the Ki at CCKB receptor was 759 nM. In addition, the Kb on gastrin receptor is 105 nM.

Regarding `CCc1ccccc1-c1nc(C(=O)Nc2ccc(C)c(C(=O)O)c2)c(CCC23CC4CC(CC(C4)C2)C3)[nH]1` [Example 159, 5-{[5-(2-Adamantan-1-yl-ethyl)-2-(2-ethyl-phenyl)-1H-imidazole-4-carbonyl]-amino}-2-methyl-benzoic Acid], on CCKB receptor, the Ki was 12.3 nM. Also, the Kb at gastrin receptor was 316 nM.

(Values after patent US6479531B1, “Gastrin and cholecystokinin receptor ligands” (James Black Foundation Limited, priority 1998, dated 2002).)
